# Assay results reported in patent US6117866A, “Bicyclic fibrinogen antagonists” (SmithKline Beecham Corporation, priority 1996, dated 2000).
# Test system: human platelets
# Assay: Inhibition of Platelet Aggregation (human platelets stimulated with ADP)
# Type: cell-based
# Conditions: in vitro
row,Compound,IC50
1,"O=C(O)CC1Nc2cc(C(=O)Nc3ccc4c(c3)CNCC4)ccc2CN(CCc2ccccc2)C1=O (racemic) [Example 4, (R,S)-8-[[(1,2,3,4-tetrahydro-7-isoquinolinyl]amino]carbonyl]-2,3,4,5-tetrahydro-3-oxo-4-(2-phenylethyl)-1H-1,4-benzodiazepine-2-acetic acid]",~75 µM
2,"CN(CCC1CCNCC1)C(=O)c1ccc2c(c1)CC(CCC(=O)O)C(=O)N(CCc1ccccc1)C2 (racemic) [Example 22, (R,S)-2,3,4,5-tetrahydro-3-oxo-2-(2-phenylethyl)-7-[[[2-(4-piperidinyl)ethyl]-methylamino]carbonyl]-1H-2-benzazepine-4-propionic acid]",0.2 to 11 µM
3,"O=C(O)CC1Nc2ccc(C(=O)Nc3ccc4c(c3)CNCC4)cc2CN(CCc2ccccc2)C1=O (racemic) [Example 7, (R,S)-7-[[(1,2,3,4-tetrahydro-7-isoquinolinyl]amino]carbonyl]-2,3,4,5-tetrahydro-3-oxo-4-(2-phenylethyl)-1H-1,4-benzodiazepine-2-acetic acid]",0.2 to 11 µM

# Now from value to compound:
row,IC50,Compound
1,0.2 to 11 µM,"O=C(O)CC1Nc2ccc(C(=O)N3CCC(C4CCNCC4)CC3)cc2CN(CCc2ccccc2)C1=O (single isomer, unassigned; (+)) [Example 23, (+)-7-[(4,4'-bipiperidin-1-yl)carbonyl]-2,3,4,5-tetrahydro-3-oxo-4-(phenylethyl)-1H-1,4-benzodiazepine-2-acetic acid]"
2,0.2 to 11 µM,"CN1Cc2cc(C(=O)N3CCC(C4CCNCC4)CC3)ccc2N[C@H](CC(=O)O)C1=O [Example 26, (R)-7-[(4,4'-bipiperidin-1-yl)carbonyl]-2,3,4,5-tetrahydro-4-methyl-3-oxo-1H-1,4-benzodiazepine-2-acetic acid]"
